Experimental data published in patent publication US20240425497A1, “Cbl-b Inhibitors and Methods of Use Thereof” (ARCUS BIOSCIENCES, INC., priority 2023, published 2024).

Tests used:
[1] = molecular target: Cbl-b (Homo sapiens (Human), UniProt Q13191); assay: Cbl-b probe displacement HTRF binding assay; conditions: 0.4 nM biotinylated Cbl-b, 150 nM BODIPY probe
Protocol: The affinity with which compounds of the present disclosure bind to Cbl-b was assessed using probe displacement homologous time resolved fluorescence (HTRF) assays. The assays used a BODIPY™ conjugated probe (Example 54 from WO 2020264398) and biotinylated Cbl-b. The assays were performed in assay buffer consisting of 20 mM Hepes, 150 mM NaCl, 0.01% Triton X-100, 0.5 mM TCEP, 0.01% BSA. On the day of the assay, a 20 point, 1:2 master serial dilution of each compound was prepared in DMSO to span a final concentration range of 10 μM to 0 nM. Two hundred nanoliters of diluted compound was added to each well of a 384-well plate. Fifteen microliters of biotinylated-Cbl-b resuspended in assay buffer were added to each well and the plate incubated for 60 minutes at room temperature prior to addition of 5 μL of BODIPY™ probe in assay buffer. Final assay conditions included 0.4 nM of Cbl-b and 150 nM of BODIPY™ probe. After a further 15 minutes of incubation at room temperature, 5 μl of Streptavidin-Terbium cryptate reagent at 5-fold final concentration was added to each well of the 384-well plate. Binding of a probe to Cbl-b results in an increase of HTRF signal. HTRF signal was measured by Envision plate reader, while competition of a compound of the present disclosure with probe results in a decrease of signal. Percentage maximum activity in each test well was calculated based on DMSO (maximum activity, 0% displacement) and no protein control wells (baseline activity, 100% displacement). Binding affinity was determined from a dose response curve fitted using a standard four parameter fit equation. See Table 3 for data for compounds (Cbl-b Binding (IC50)).

[2] = tested on: Jurkat cells; assay: IL-2 secretion assay in CD3/CD28-activated Jurkat cells (AlphaLISA); assay type: cell-based, human; conditions: CD3/CD28 activation, 24 h
Protocol: Certain compounds were also evaluated in an IL-2 secretion assay. On the day of the assay, a 16 point, 1:2 master serial dilution of each compound was prepared in Opti-MEM to span a final concentration range of […]. Assays were set up in CORNING® tissue culture-treated 384-well microplates containing 60 nL of each dilution. Jurkat cells grown in RPMI-1640 supplemented with 10% FBS, 1% Glutamax, and 1% Pen/Strep were collected, resuspended in Opti-MEM. 50,000 cells/well and added to the compound plates. After a short spin (1200 rpm for 1 min), the plates were incubated at 37° C. for 1 hour. The cells were activated by adding 15 μL of IMMUNOCULT™ Human CD3/CD28 T Cell Activator (STEMCELL Technologies) diluted in Opti-MEM. After 24 h of incubation at 37° C., aliquots of culture supernatants were transferred to OptiPlate-384 (PerkinElmer) microplates. The level of JIL-2 secretion in the supernatants was then determined using the IL-2 (human) AiphaLISA Detection Kit (PerkinElmer) according to the manufacturer's recommendations. The AiphaLISA signal was measured using an EnVision plate reader (PerkinElmer). EC50 values were determined by fitting the data to a standard 4-parameter logistic equation. See Table 3 for data for select compounds (IL-2 Secretion (EC50)).

Cbl-b, sequence (Q13191 whole entry, species assumed): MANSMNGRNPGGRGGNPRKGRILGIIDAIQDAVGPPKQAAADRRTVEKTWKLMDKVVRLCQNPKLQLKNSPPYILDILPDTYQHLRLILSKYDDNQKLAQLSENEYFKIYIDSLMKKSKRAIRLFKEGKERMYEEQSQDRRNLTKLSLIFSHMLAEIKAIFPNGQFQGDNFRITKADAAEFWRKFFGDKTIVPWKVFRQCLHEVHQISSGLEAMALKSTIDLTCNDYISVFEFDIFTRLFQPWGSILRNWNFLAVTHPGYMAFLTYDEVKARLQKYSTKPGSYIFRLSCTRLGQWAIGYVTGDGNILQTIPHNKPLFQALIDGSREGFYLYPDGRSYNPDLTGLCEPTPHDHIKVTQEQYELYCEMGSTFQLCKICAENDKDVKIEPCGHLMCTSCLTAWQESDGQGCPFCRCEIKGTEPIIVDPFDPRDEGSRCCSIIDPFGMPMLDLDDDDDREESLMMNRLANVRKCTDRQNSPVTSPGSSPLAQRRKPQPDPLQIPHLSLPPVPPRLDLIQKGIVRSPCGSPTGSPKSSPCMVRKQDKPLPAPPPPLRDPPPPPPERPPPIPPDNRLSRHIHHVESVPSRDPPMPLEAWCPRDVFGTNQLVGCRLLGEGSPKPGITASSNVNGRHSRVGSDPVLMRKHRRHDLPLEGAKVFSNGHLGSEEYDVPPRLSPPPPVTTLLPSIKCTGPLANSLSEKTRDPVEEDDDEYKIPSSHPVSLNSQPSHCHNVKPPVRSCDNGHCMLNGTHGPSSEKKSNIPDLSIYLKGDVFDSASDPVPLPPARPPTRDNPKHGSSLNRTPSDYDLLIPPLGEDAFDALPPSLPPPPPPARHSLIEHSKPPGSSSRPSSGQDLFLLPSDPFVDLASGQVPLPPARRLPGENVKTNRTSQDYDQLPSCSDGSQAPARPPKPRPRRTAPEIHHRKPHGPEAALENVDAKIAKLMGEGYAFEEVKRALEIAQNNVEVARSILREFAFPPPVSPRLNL

| SMILES | IC50 [1] | EC50 ([2]; Homo sapiens) | EC50 [2] |
| --- | --- | --- | --- |
| C[C@H]1CCCN(Cc2cc3c(C4CC4)cn(-c4cc(-c5ccc(F)cc5C(=O)N(C)C)cc(C5CC5)n4)c(=O)c3[nH]2)C1 [Example 1, 2-[2-cyclopropyl-6-[4-cyclopropyl-2-[[(3S)-3-methylpiperidin-1-yl]methyl]-7-oxo-1H-pyrrolo[2,3-c]pyridin-6-yl]pyridin-4-yl]-5-fluoro-N,N-dimethylbenzamide] | < 100 nM | < 100 nM | – |
| CCOCCNC(=O)c1cc(F)ccc1-c1cc(C2CC2)nc(-n2cc(C3CC3)c3cc(CN4CCC[C@H](C)C4)[nH]c3c2=O)c1 [Example 2, 2-[2-cyclopropyl-6-[4-cyclopropyl-2-[[(3S)-3-methylpiperidin-1-yl]methyl]-7-oxo-1H-pyrrolo[2,3-c]pyridin-6-yl]pyridin-4-yl]-N-(2-ethoxyethyl)-5-fluorobenzamide] | 100 to 1000 nM | 1000 to 5000 nM | – |
| C[C@H]1CCCN(Cc2cc3c(C4CC4)cn(-c4cc(-c5ccc(F)cc5C(=O)N5CCOCC5)cc(C5CC5)n4)c(=O)c3[nH]2)C1 [Example 3, 2-{[(S)-3-methyl-1-piperidyl]methyl}-4-cyclopropyl-6-[6-cyclopropyl-4-(4-fluoro-2-morpholinocarbonylphenyl)-2-pyridyl]-1,6-dihydro-1,6-diaza-7-indenone] | < 100 nM | 100 to 1000 nM | – |
| C[C@H]1CCCN(Cc2cc3c(C4CC4)cn(-c4cc(-c5ccc(F)cc5C(=O)N5CCCC5)cc(C5CC5)n4)c(=O)c3[nH]2)C1 [Example 4, 2-{[(S)-3-methyl-1-piperidyl]methyl}-4-cyclopropyl-6-(6-cyclopropyl-4-{4-fluoro-2-[(1-pyrrolidinyl)carbonyl]phenyl}-2-pyridyl)-1,6-dihydro-1,6-diaza-7-indenone] | < 100 nM | 100 to 1000 nM | – |
| CCN(CC)C(=O)c1cc(F)ccc1-c1cc(C2CC2)nc(-n2cc(C3CC3)c3cc(CN4CCC[C@H](C)C4)[nH]c3c2=O)c1 [Example 5, N,N-diethyl2-[2-(2-{[(S)-3-methyl-1-piperidyl]methyl}-4-cyclopropyl-7-oxo-1,6-dihydro-1,6-diaza-6-indenyl)-6-cyclopropyl-4-pyridyl]-5-fluorobenzamide] | < 100 nM | 100 to 1000 nM | – |

Other lines, results leading:

| IC50 [1] | EC50 ([2]; Homo sapiens) | EC50 [2] | SMILES |
| --- | --- | --- | --- |
| < 100 nM | 100 to 1000 nM | – | O=C(c1cc(F)ccc1-c1cc(C2CC2)nc(-n2cc(C(F)(F)F)c3cc(C4COCCN4)[nH]c3c2=O)c1)N1CC(F)C1 (racemic) [Example 55, 6-[6-cyclopropyl-4-[4-fluoro-2-(3-fluoroazetidine-1-carbonyl)phenyl]pyridin-2-yl]-2-morpholin-3-yl-4-(trifluoromethyl)-1H-pyrrolo[2,3-c]pyridin-7-one] |
| < 100 nM | 100 to 1000 nM | – | CN1CCOCC1c1cc2c(C(F)(F)F)cn(-c3cc(-c4ccc(F)cc4C(=O)N4CC(F)C4)cc(C4CC4)n3)c(=O)c2[nH]1 (racemic) [Example 56, 6-[6-cyclopropyl-4-[4-fluoro-2-(3-fluoroazetidine-1-carbonyl)phenyl]pyridin-2-yl]-2-(4-methylmorpholin-3-yl)-4-(trifluoromethyl)-1H-pyrrolo[2,3-c]pyridin-7-one] |
| < 100 nM | – | – | CO[C@@H](C)CN(C)Cc1cc2ncn(-c3cc(-c4ccc(F)cc4C(=O)N4CC(F)(F)C4)cc(C4CC4)n3)c(=O)c2[nH]1 [Example 40, 3-[6-cyclopropyl-4-[2-(3,3-difluoroazetidine-1-carbonyl)-4-fluorophenyl]pyridin-2-yl]-6-[[[(2S)-2-methoxypropyl]-methylamino]methyl]-5H-pyrrolo[3,2-d]pyrimidin-4-one] |
| – | – | < 100 nM | COCCNCc1cc2ncn(-c3cc(-c4ccc(F)cc4C(=O)N4CC(F)(F)C4)cc(C4CC4)c3)c(=O)c2[nH]1 [Example 42, 6-{5-cyclopropyl-2′-[(3,3-difluoro-1-azetidinyl)carbonyl]-4′-fluoro-3-biphenylyl}-2-[(2-methoxyethylamino)methyl]-1,6-dihydro-1,4,6-triaza-7-indenone] |
